Experimental data reported in BigSolDB 2.1.

O=C(O)c1ccccc1C(=O)O
Details | solubility (mole fraction)
in 1,2-diethoxyethane, 293.15 K | 0.0154
in 1,2-diethoxyethane, 303.25 K | 0.0177
in 1,2-diethoxyethane, 313.2 K | 0.02
in 1,2-diethoxyethane, 323.05 K | 0.0228
in 1,2-diethoxyethane, 333.15 K | 0.0261
in 1,2-diethoxyethane, 343.05 K | 0.0302
in THF, 293.25 K | 0.0697
in THF, 303.15 K | 0.0754
in THF, 313.45 K | 0.0826
in THF, 323.15 K | 0.0899
in THF, 329.05 K | 0.0949
in acetophenone, 303.35 K | 0.0056
in acetophenone, 313.35 K | 0.00724
in acetophenone, 323.35 K | 0.00933
in acetophenone, 332.95 K | 0.0119
in acetophenone, 343.55 K | 0.0152
in cyclohexanone, 293.15 K | 0.0176
in cyclohexanone, 303.15 K | 0.0212
in cyclohexanone, 313.15 K | 0.0257
in cyclohexanone, 323.15 K | 0.031
in cyclohexanone, 333.15 K | 0.037
in cyclohexanone, 343.4 K | 0.0459

O=C(O)c1ccc(C(=O)O)cc1
Details | solubility (mole fraction)
in 1,2-diethoxyethane, 293.15 K | 0.000214
in 1,2-diethoxyethane, 303.3 K | 0.000251
in 1,2-diethoxyethane, 313.25 K | 0.000294
in 1,2-diethoxyethane, 323.35 K | 0.000344
in 1,2-diethoxyethane, 333.65 K | 0.000403
in 1,2-diethoxyethane, 343.55 K | 0.000477
in THF, 293.15 K | 0.000882
in THF, 303.15 K | 0.000995
in THF, 313.45 K | 0.00115
in THF, 323.35 K | 0.0014
in THF, 329.35 K | 0.00164
in acetophenone, 303.15 K | 1.07e-05
in acetophenone, 313.15 K | 1.87e-05
in acetophenone, 323.15 K | 3.47e-05
in acetophenone, 332.85 K | 6.17e-05
in acetophenone, 343.3 K | 0.000116
in cyclohexanone, 293.15 K | 0.000167
in cyclohexanone, 303.15 K | 0.000183
in cyclohexanone, 313.15 K | 0.000231
in cyclohexanone, 323.3 K | 0.000302
in cyclohexanone, 333.4 K | 0.000385
in cyclohexanone, 343.85 K | 0.00053

O=C(O)c1cccc(C(=O)O)c1
Details | solubility (mole fraction)
in 1,2-diethoxyethane, 293.3 K | 0.00265
in 1,2-diethoxyethane, 303.15 K | 0.00293
in 1,2-diethoxyethane, 313.15 K | 0.0033
in 1,2-diethoxyethane, 322.75 K | 0.00376
in 1,2-diethoxyethane, 332.65 K | 0.00433
in 1,2-diethoxyethane, 342.45 K | 0.00502
in THF, 293.35 K | 0.0141
in THF, 303.15 K | 0.0154
in THF, 313.45 K | 0.0169
in THF, 322.85 K | 0.0185
in THF, 328.75 K | 0.0196
in acetophenone, 303.15 K | 0.000725
in acetophenone, 313.15 K | 0.000858
in acetophenone, 323.05 K | 0.00105
in acetophenone, 332.95 K | 0.00135
in acetophenone, 342.95 K | 0.00175
in cyclohexanone, 293.35 K | 0.00239
in cyclohexanone, 303.15 K | 0.00302
in cyclohexanone, 313.15 K | 0.00385
in cyclohexanone, 322.75 K | 0.00469
in cyclohexanone, 332.75 K | 0.00571
in cyclohexanone, 342.85 K | 0.00697
